Drawing on US20260297070A1, “CYCLIC [COMPOUND LEFT OUT] WRN INHIBITORS” (Nimbus Wadjet, Inc., priority 2023, published 2026), this text covers IC50 for eleven compounds.

The assay concerns the target T1, human Werner helicase (WRN-BV08, Uniprot Q14191, amino acids 517-1235 with L1074F point mutation) (Homo sapiens, UniProt Q14191, L1074F).
T1 construct: Uniprot Q14191, amino acids 517-1235 with L1074F point mutation; TEV-cleavable 8×His (C, cleaved yes); made in house; host or cells: Sf9 insect cells (baculovirus)
Put plainly: WRN (BV08) ADP-Glo Assay. In kind it is biochemical. The note with it: 0.15 nM WRN, 5 μM ATP, 0.1 nM DNA duplex, 15 min preincubation, 60 min at 25° C., pH 7.5, 1% DMSO; read-out: ADP-Glo_hWRN_IC50. The gist of the method: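 Untagged WRN (Sf9-expressed, TEV-cleaved) at 0.15 nM was preincubated 15 min at 25 °C with compound, then reacted 60 min at 25 °C with 5 μM ATP and 0.1 nM DNA duplex in Bicine pH 7.5, 1 mM MgCl2. ADP-Glo luminescence gave % inhibition; IC50 by four-parameter fit.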
On the technique in general: In ADP-Glo the light output rises with the ADP produced.

T1 sequence (Q14191 with tags, fused parts or gaps L1074F limits assumed): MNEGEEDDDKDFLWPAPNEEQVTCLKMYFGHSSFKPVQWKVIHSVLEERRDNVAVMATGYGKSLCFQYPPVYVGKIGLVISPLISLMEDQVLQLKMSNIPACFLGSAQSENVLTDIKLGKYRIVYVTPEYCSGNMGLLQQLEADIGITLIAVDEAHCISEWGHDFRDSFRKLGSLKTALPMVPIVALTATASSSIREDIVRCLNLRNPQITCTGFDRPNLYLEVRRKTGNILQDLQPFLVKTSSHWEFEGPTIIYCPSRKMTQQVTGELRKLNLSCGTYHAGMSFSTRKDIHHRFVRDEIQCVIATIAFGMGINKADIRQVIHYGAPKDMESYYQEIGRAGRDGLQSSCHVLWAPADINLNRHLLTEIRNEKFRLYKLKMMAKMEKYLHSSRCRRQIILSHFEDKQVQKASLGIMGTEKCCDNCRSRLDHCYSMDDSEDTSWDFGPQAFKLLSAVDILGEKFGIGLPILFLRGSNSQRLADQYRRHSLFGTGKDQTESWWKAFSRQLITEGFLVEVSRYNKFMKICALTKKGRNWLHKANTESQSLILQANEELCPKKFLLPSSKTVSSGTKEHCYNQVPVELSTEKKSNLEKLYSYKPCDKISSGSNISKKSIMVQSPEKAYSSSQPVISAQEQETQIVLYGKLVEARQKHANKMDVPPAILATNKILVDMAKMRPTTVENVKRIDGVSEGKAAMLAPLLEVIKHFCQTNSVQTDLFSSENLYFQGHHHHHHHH

For `O=C(Cn1cc(C2CC2)cn1)N(Cc1ccncc1)C1C=CS(=O)(=O)C1` (centres unmarked) [I-429, 2-(4-cyclopropyl-1H-pyrazol-1-yl)-N-(1,1-dioxo-2,3-dihydro-1lambda6-thiophen-3-yl)-N-[(pyridin-4-yl)methyl]acetamide], the IC50 was over 50 µM.

With `O=C(Cc1ccc(S(F)(F)(F)(F)F)cc1)N(Cc1ccnc(OC(F)F)c1)C1C=CS(=O)(=O)C1` (centres unmarked) [I-605, N-{[2-(difluoromethoxy)pyridin-4-yl]methyl}-N-(1,1-dioxo-2,3-dihydro-1lambda6-thiophen-3-yl)-2-[4-(pentafluoro-lambda6-sulfanyl)phenyl]acetamide], the IC50 was 0.5 to 5 µM.

With `O=C([C@@H]1CC[C@@H](c2ccccc2)C1)N(Cc1ccncc1)C1C=CS(=O)(=O)C1` (mixture of isomers) [I-655, rac-(1R,3R)-N-(1,1-dioxo-2,3-dihydro-1lambda6-thiophen-3-yl)-3-phenyl-N-[(pyridin-4-yl)methyl]cyclopentane-1-carboxamide], the IC50 was over 50 µM.

Take `CN(CCc1ccncc1)C(=O)c1ccc(CN(C(=O)Cc2ccc(-c3ccc(F)c(F)c3)cc2F)C2C=CS(=O)(=O)C2)cc1` (centres unmarked) [I-791, 4-{[N-(1,1-dioxo-2,3-dihydro-1lambda6-thiophen-3-yl)-2-{3,3′,4′-trifluoro-[1,1′-biphenyl]-4-yl}acetamido]methyl}-N-methyl-N-[2-(pyridin-4-yl)ethyl]benzamide]: the IC50 was in the range of 0.5 to 5 µM.

On to `O=C(Cn1ncc(-c2ccccc2)n1)N(Cc1ccncc1)C1C=CS(=O)(=O)C1` (centres unmarked) [I-291, N-(1,1-dioxo-2,3-dihydro-1lambda6-thiophen-3-yl)-2-(4-phenyl-2H-1,2,3-triazol-2-yl)-N-[(pyridin-4-yl)methyl]acetamide], for which the IC50 was 10 to 50 µM.

`CCc1ccc(CC(=O)N(Cc2ccncc2)C2C=CS(=O)(=O)C2)cc1` (centres unmarked) [I-308, N-(1,1-dioxo-2,3-dihydro-1lambda6-thiophen-3-yl)-2-(4-ethylphenyl)-N-[(pyridin-4-yl)methyl]acetamide]: the IC50 was in the range of 10 to 50 µM.

As to `COC(C(=O)N(Cc1nc(C(C)(C)O)cs1)C1C=CS(=O)(=O)C1)c1ccc(-c2ccc(F)c(F)c2)cc1F` (single isomer, unassigned) [I-747, (2R*)-N-[(3R**)-1,1-dioxo-2,3-dihydro-1lambda6-thiophen-3-yl]-N-{[4-(2-hydroxypropan-2-yl)-1,3-thiazol-2-yl]methyl}-2-methoxy-2-{3,3′,4′-trifluoro-[1,1′-biphenyl]-4-yl}acetamide], the IC50 is 5 to 10 µM.

For the compound `COc1cc(CN(C(=O)C(C(=O)N(C)C)c2ccc(S(F)(F)(F)(F)F)cc2)C2C=CS(=O)(=O)C2)ccn1` (centres unmarked) [I-159, N′-(1,1-dioxo-2,3-dihydro-1lambda6-thiophen-3-yl)-N′-[(2-methoxypyridin-4-yl)methyl]-N,N-dimethyl-2-[4-(pentafluoro-lambda6-sulfanyl)phenyl]propanediamide], the IC50 was in the range of 0.5 to 5 µM.

As for `O=C(Cn1cc(-c2ccc(F)c(F)c2)cn1)N(Cc1nc([C@@H]2C[C@H]2F)cs1)C1C=CS(=O)(=O)C1` (stereo partly drawn) [I-723, 2-[4-(3,4-difluorophenyl)-1H-pyrazol-1-yl]-N-(1,1-dioxo-2,3-dihydro-1lambda6-thiophen-3-yl)-N-({4-[(1S,2R)-2-fluorocyclopropyl]-1,3-thiazol-2-yl}methyl)acetamide], the IC50 was under 0.5 µM.

Consider `Cc1nn(-c2ccc(F)cc2F)c(C)c1CC(=O)N(Cc1ccncc1)C1C=CS(=O)(=O)C1` (centres unmarked) [I-816, 2-[1-(2,4-difluorophenyl)-3,5-dimethyl-1H-pyrazol-4-yl]-N-(1,1-dioxo-2,3-dihydro-1lambda6-thiophen-3-yl)-N-[(pyridin-4-yl)methyl]acetamide], for which the IC50 is over 50 µM.

Consider `COCCN(C)C(=O)C(C(=O)N(Cc1ccnc(C(C)(C)O)c1)[C@@H]1C=CS(=O)(=O)C1)c1ccc(-c2ccc(F)c(F)c2)cc1F` (stereo partly drawn) [I-20, N′-[(3R)-1,1-dioxo-2,3-dihydro-1lambda6-thiophen-3-yl]-N′-{[2-(2-hydroxypropan-2-yl)pyridin-4-yl]methyl}-N-(2-methoxyethyl)-N-methyl-2-{3,3′,4′-trifluoro-[1,1′-biphenyl]-4-yl}propanediamide], for which the IC50 is under 0.5 µM.
